Experimental data published in US20220046917A1, “ATTRACTANT BLEND COMPOSITIONS, DEVICES AND METHODS FOR ATTRACTING FEMALE MICE” (priority 2020, published 2022).

Key:
wild mice [1] = assay: Experiment 3: field experiment, captures in paired baited trap boxes; type: in vivo, Mus musculus; conditions: Exp. 3, paired trap boxes
Description: (§1) Each replicate (n=49) consisted of paired trap boxes as depicted in FIG. 4. The paired trap boxes, PROTECTA® Mouse, Bell Laboratories Inc. Madison, Wis.
(§2) Twice every week, paired trap boxes were checked, and food lures and pheromone lures replaced. Whenever a mouse had been captured, its sex and age (juvenile or adult based on body size and genitalia development) were recorded, and a new trap box and snap trap were deployed. […] The position of the treatment and the control trap within paired trap boxes was re-randomized after each capture.
(§3) Experiments 3 and 4 evaluated the respective abilities of the CPCs and a blend of brevicomin and thiazole to enhance the attractiveness of testosterone. […] Specifically, in Experiment 3, the treatment box in each pair was baited with brevicomin (1 mg) and thiazole (1 mg) formulated in mineral oil (10 ml) and contained in a 20-ml glass scintillation vial. […] To minimize any potential sources of error, treatment and control trap boxes in each experiment were fitted with the same glassware and volume of mineral oil.

wild mice [2] = assay: Experiment 4: field experiment, captures in paired baited trap boxes; type: in vivo, Mus musculus; conditions: Exp. 4, paired trap boxes
Description: as §1, §2, §3

C[C@]12CC[C@H]3[C@@H](CCC4=CC(=O)CC[C@@]43C)[C@@H]1CC[C@@H]2O [testosterone]
adult female mice captured (wild mice [1]): one | adult females captured (wild mice [2]): four | adult males captured (wild mice [2]): seven | juvenile male captured (wild mice [2]): one
